Here are results for one compound from PMC9616412, “Nebulized fusion inhibitory peptide protects cynomolgus macaques from measles virus infection” (Nature Communications, 2022).

For one data set, the system named is MeV. Description: Plaque reduction assay on Vero-hSLAM cells. The following applies: fusion inhibition and plaque reduction in vitro before and after nebulization with mesh nebulizer. (In general: In a plaque reduction assay, fewer plaques than in the control indicate reduced infectivity or spread.)
The test system of data set [1] is MeV IC323-eGFP. The data set can be described thus: Haematological parameters during MeV infection. In kind it is in vivo, Cynomolgus monkeys (Macaca fascicularis). The protocol: Supplementary figure S6. Evolution of the hematological parameters during the MeV infection. Major PBMC populations in blood of cynomolgus macaques were followed using Sysmex XT2000i Vet automatic analyzer, after nebulization of either 3 ml of 0.9% NaCl (C) or […] of HRC4 peptide (P) and MeV infection. Transient lymphopenia is observed in the absence of peptide protection.
Lymphocytes concentration (K/uL)
Monocytes concentration (K/uL)

In data set [2] the test system is MeV IC323-eGFP. Description: Viremia: GFP+ PBMC by flow cytometry. In general terms: In flow cytometry, cells or beads pass a laser one at a time.
Procedure: Whole blood was collected on EDTA, then transferred into BD vacutainer CPT tubes (after removal of anticoagulant solution from CPT tubes) and spun at 2500 g for 20 min. The PBMCs were collected and one-tenth were used to isolate RNA. […] Cells were acquired on a MACSQuant®10 flow cytometer (Miltenyi) and analyzed by FlowJo10.8 (Becton Dickinson) and Kaluza 2.1 (Beckman Coulter).
Data set [3] is described as follows: Lung histopathology (HE, HES; eosinophil infiltration). The following applies: for Lung eosinophil infiltration: HES staining. In kind it is in vivo, cynomolgus macaques. The protocol:
Lung tissue samples were collected at necropsy and fixed by immersion in 10% neutral buffered formalin (Sigma) for a minimum of 14 days. The tissue samples were trimmed, processed and embedded in paraffin. 4 to 5 µm-thick sections were cut. For histopathology evaluation, slides were routinely stained with hematoxylin-eosin (HE) or with hematoxylin-eosin-saffron (HES). For the study of the pulmonary infiltration by eosinophils, the histopathologic evaluation was performed by a board-certified veterinary pathologist.
For hematoxylin-eosin staining, formalin-fixed tissues were processed and embedded in paraffin and tissue sections were then deparaffinized, rehydrated, rinsed, and placed in PBS before harrys hematoxylin staining (Diapath, diluted 1/3), washed with PBS and stained with eosin 1% (Sigma-Aldrich). Slide were washed with water dehydrated and mounted with DPX mounting medium (Sigma-Aldrich). For the study of eosinophils infiltration, slides were stained in addition with saffron and analysed by a board-certified veterinary pathologist.

The structures appear in SMILES notation.

Turning to `CC[C@H](C)[C@H](NC(=O)[C@H](C)NC(=O)[C@H](CC(N)=O)NC(=O)CNC(=O)[C@H](CC(C)C)NC(=O)[C@H](CC(N)=O)NC(=O)[C@@H](NC(=O)CNC(=O)[C@@H](NC(=O)[C@H](CC(=O)O)NC(=O)[C@H](CC(C)C)NC(=O)[C@H](CCCNC(=N)N)NC(=O)[C@H](CCC(=O)O)NC(=O)[C@H](CC(C)C)NC(=O)[C@H](CO)NC(=O)[C@@H](NC(=O)[C@@H]1CCCN1C(=O)[C@@H]1CCCN1)[C@@H](C)CC)C(C)C)[C@@H](C)O)C(=O)N[C@@H](C)C(=O)N[C@@H](CCCCN)C(=O)N[C@@H](CC(C)C)C(=O)N[C@@H](CCC(=O)O)C(=O)N[C@@H](CC(=O)O)C(=O)N[C@@H](C)C(=O)N[C@@H](CCCCN)C(=O)N[C@@H](CCC(=O)O)C(=O)N[C@@H](CC(C)C)C(=O)N[C@@H](CC(C)C)C(=O)N[C@@H](CCC(=O)O)C(=O)N[C@@H](CO)C(=O)N[C@@H](CO)C(=O)N[C@@H](CC(=O)O)C(=O)N[C@@H](CCC(N)=O)C(=O)N[C@H](C(=O)N[C@@H](CC(C)C)C(=O)N[C@@H](CCCNC(=N)N)C(=O)NCC(=O)N[C@@H](CO)C(=O)NCC(=O)N[C@@H](CO)C(=O)NCC(=O)N[C@@H](CSC1CC(=O)N(CCCC(=O)NCCOCCOCCOCCOCCC(=O)NCCN(CCNC(=O)CCOCCOCCOCCOCCNC(=O)CCCN2C(=O)CC(SC[C@H](NC(=O)CNC(=O)[C@H](CO)NC(=O)CNC(=O)[C@H](CO)NC(=O)CNC(=O)[C@H](CCCNC(=N)N)NC(=O)[C@H](CC(C)C)NC(=O)[C@@H](NC(=O)[C@H](CCC(N)=O)NC(=O)[C@H](CC(=O)O)NC(=O)[C@H](CO)NC(=O)[C@H](CO)NC(=O)[C@H](CCC(=O)O)NC(=O)[C@H](CC(C)C)NC(=O)[C@H](CC(C)C)NC(=O)[C@H](CCC(=O)O)NC(=O)[C@H](CCCCN)NC(=O)[C@H](C)NC(=O)[C@H](CC(=O)O)NC(=O)[C@H](CCC(=O)O)NC(=O)[C@H](CC(C)C)NC(=O)[C@H](CCCCN)NC(=O)[C@H](C)NC(=O)[C@@H](NC(=O)[C@H](C)NC(=O)[C@H](CC(N)=O)NC(=O)CNC(=O)[C@H](CC(C)C)NC(=O)[C@H](CC(N)=O)NC(=O)[C@@H](NC(=O)CNC(=O)[C@@H](NC(=O)[C@H](CC(=O)O)NC(=O)[C@H](CC(C)C)NC(=O)[C@H](CCCNC(=N)N)NC(=O)[C@H](CCC(=O)O)NC(=O)[C@H](CC(C)C)NC(=O)[C@H](CO)NC(=O)[C@@H](NC(=O)[C@@H]3CCCN3C(=O)[C@@H]3CCCN3)[C@@H](C)CC)C(C)C)[C@@H](C)O)[C@@H](C)CC)[C@@H](C)CC)C(=O)O)C2=O)CCO[C@H]2CC[C@@]3(C)C(=CC[C@H]4[C@@H]5CC[C@H]([C@H](C)CCCC(C)C)[C@@]5(C)CC[C@@H]43)C2)C1=O)C(=O)O)[C@@H](C)CC` (some centres unmarked) [HRC4], the “Loss of inhibitory activity by nebulization” value in the data set on MeV is reported as “did not cause any loss of activity”. In the data set with MeV IC323-eGFP [1] (HRC4-treated animal P2), the Duration of leukopenia is listed as 9-13 days p.i. In the data set with MeV IC323-eGFP [1] (day 6 following MeV infection, HRC4-treated macaques), the “Total white blood cell and lymphocyte counts” value was “remained stable”. Moreover, the Duration of viremia with MeV IC323-eGFP [2] (HRC4-treated animal P2 (co-housed with C3)) is reported as 6 days. Besides, in the data set with MeV IC323-eGFP [2] (HRC4-treated animal P2, day 9 p.i.), the “Infection of PBMCs by flow cytometry” value is on record as “low level”. Also, the Lung eosinophil infiltration entry in data set [3] (HRC4-treated animals P1 and P3) is recorded as “no eosinophil infiltration was visible”; in data set [3] (animals that developed MeV infection (incl. HRC4-treated P2)), “minimal although noticeable eosinophil infiltration”. For the same compound, the “Histological analysis of lungs” value in data set [3] (lungs collected from nebulized animals) is “did not reveal any abnormalities”.
